From the supplement of paper PMC10627819

Experiments:
Test in all cases: fitness (endpoint OD595 vs no drug) (fraction); higher = more growth
[1] = system: B. subtilis 168
Outline: (§1)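 Each well of a 384-well plate received 30 µl of culture at OD595 0.01, or 55 µl for S. pneumoniae. TSB, LB Lennox or CY served as media at 37 °C. OD595 was taken every 30 min for 14 h and corrected by subtracting the first reading. Fitness is the optical density at stationary-phase entry divided by the robust mean of no-drug controls, capped at 1.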

[2] = system: S. aureus DSM 20231
Outline: as §1

[3] = system: S. pneumoniae D39V
Outline: as §1

CN(C)[C@@H]1C(O)=C(C(N)=O)C(=O)[C@@]2(O)C(O)=C3C(=O)c4c(O)ccc(Cl)c4[C@@](C)(O)[C@H]3C[C@@H]12 [Chlortetracycline] + Cc1cc(NS(=O)(=O)c2ccc(N)cc2)no1 [Sulfamethoxazol]
fitness, one replicate
Settings | partner 0.5 µg/mL | partner 1 µg/mL | partner 2 µg/mL | partner 4 µg/mL
[1], first compound 0.0475 µg/mL | 0.905 | – | – | –
[1], first compound 0.095 µg/mL | 0.837 | – | – | –
[1], first compound 0.19 µg/mL | 0.449 | – | – | –
[2], first compound 0.006 µg/mL | – | 0.724 | 0.733 | 0.761
[3], first compound 0.012 µg/mL | – | 0.929 | 0.951 | 0.865
[3], first compound 0.024 µg/mL | – | 0.851 | 0.88 | 0.806
[3], first compound 0.048 µg/mL | – | 0.793 | 0.797 | 0.743

fitness
Settings | partner 1 µg/mL | partner 2 µg/mL | partner 4 µg/mL
[1], first compound 0.0475 µg/mL | 0.9 | 0.852 | 0.907
[1], first compound 0.095 µg/mL | 0.78 | 0.725 | 0.779
[1], first compound 0.19 µg/mL | 0.548 | 0.527 | 0.5
[2], first compound 0.012 µg/mL | 0.509 | 0.533 | 0.573
[2], first compound 0.024 µg/mL | 0.256 | 0.234 | 0.264
[2], first compound 0.048 µg/mL | 0.0878 | 0.0579 | 0.059
[3], first compound 0.375 µg/mL | 0.0312 | 0.0347 | 0.0394
[3], first compound 0.75 µg/mL | 0.0329 | 0.0284 | 0.0259
[3], first compound 1.5 µg/mL | 0.0307 | 0.0374 | 0.0403

CN(C)[C@@H]1C(O)=C(C(N)=O)C(=O)[C@@]2(O)C(O)=C3C(=O)c4c(O)ccc(Cl)c4[C@@](C)(O)[C@H]3C[C@@H]12 [Chlortetracycline] + CN(N=O)C(=O)N[C@@H](C=O)[C@@H](O)[C@H](O)[C@H](O)CO [Streptozotocin]
fitness
Settings | partner 0.15 µg/mL | partner 0.3 µg/mL | partner 0.6 µg/mL | partner 1.2 µg/mL | partner 2.4 µg/mL | partner 4.8 µg/mL
[1], first compound 0.0475 µg/mL | 0.901 | 0.934 | 0.956 | – | – | –
[1], first compound 0.095 µg/mL | 0.786 | 0.762 | 0.784 | – | – | –
[1], first compound 0.19 µg/mL | 0.533 | 0.547 | 0.556 | – | – | –
[2], first compound 0.012 µg/mL | 0.503 | 0.532 | 0.507 | – | – | –
[2], first compound 0.024 µg/mL | 0.227 | 0.232 | 0.189 | – | – | –
[2], first compound 0.048 µg/mL | 0.0717 | 0.13 | 0.059 | – | – | –
[3], first compound 0.375 µg/mL | – | – | – | 0.0355 | 0.0337 | 0.0486
[3], first compound 0.75 µg/mL | – | – | – | 0.0646 | 0.0497 | 0.0485
[3], first compound 1.5 µg/mL | – | – | – | 0.0765 | 0.0322 | 0.0617

fitness, one replicate
Settings | partner 0.15 µg/mL | partner 0.3 µg/mL | partner 0.6 µg/mL | partner 1.2 µg/mL | partner 2.4 µg/mL | partner 4.8 µg/mL
[2], first compound 0.006 µg/mL | 0.699 | 0.621 | 0.622 | – | – | –
[3], first compound 0.012 µg/mL | – | – | – | 0.889 | 0.893 | 0.796
[3], first compound 0.024 µg/mL | – | – | – | 0.858 | 0.798 | 0.659
[3], first compound 0.048 µg/mL | – | – | – | 0.737 | 0.8 | 0.577
